This assay deals with T1, L-CPT1 (Homo sapiens, UniProt P50416).
T1 construct: made in house; host or cells: Pichia pastoris strain X-33 (pGAPZB/pGAPZA vector), crude cell-free extract
T1 sequence (P50416 1-773): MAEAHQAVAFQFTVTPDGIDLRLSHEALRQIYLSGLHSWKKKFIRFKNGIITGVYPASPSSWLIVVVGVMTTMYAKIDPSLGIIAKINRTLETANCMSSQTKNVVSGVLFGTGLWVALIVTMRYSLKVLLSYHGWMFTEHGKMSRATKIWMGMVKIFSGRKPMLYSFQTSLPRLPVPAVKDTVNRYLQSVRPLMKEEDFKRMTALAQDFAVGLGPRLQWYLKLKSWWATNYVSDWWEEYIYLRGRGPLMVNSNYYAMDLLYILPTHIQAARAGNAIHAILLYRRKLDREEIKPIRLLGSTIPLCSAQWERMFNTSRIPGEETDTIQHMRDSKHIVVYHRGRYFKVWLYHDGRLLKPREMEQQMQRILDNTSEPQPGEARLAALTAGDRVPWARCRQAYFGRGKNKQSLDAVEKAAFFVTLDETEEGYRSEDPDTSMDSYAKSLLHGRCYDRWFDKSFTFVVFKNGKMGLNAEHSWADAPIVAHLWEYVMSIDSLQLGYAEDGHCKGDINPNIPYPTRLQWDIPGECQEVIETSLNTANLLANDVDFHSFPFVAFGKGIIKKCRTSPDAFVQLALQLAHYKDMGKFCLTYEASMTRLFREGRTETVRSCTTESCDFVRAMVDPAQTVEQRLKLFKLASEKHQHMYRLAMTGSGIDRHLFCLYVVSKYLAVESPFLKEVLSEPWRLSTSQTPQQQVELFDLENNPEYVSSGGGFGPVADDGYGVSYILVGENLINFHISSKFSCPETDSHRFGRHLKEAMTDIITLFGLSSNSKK
As to the kind of experiment: CPT activity spectrophotometric assay with DTNB (Ellman's reagent), cell-free extracts of P. pastoris expressing CPT1. Particulars: carnitine 500 μM, palmitoyl-CoA 80 μM, DTNB 300 μM, absorbance at 410 nm, pH 7.4; read-out: L-CPT1 inhibition IC50. It is filed as biochemical. The method, then:
The following tests were carried out in order to determine the activity of the compounds of the present invention. Background information on the performed assays can be found in: Jackson et al., 1999, Biochem. J. 341, 483-489 and Jackson et al., 2000, J. Biol. Chem. 275, 19560-19566.
Human liver and muscle CPT1 cDNAs and rat CPT2 cDNA were subcloned in pGAPZB or pGAPZA, respectively. These plasmids were used to transform P. pastoris strain X-33 via electroporation after the preparation of electrocompetent cells. High copy number clones were selected where necessary using 0.5 or 1 mg/ml Zeocin. Cultures for activity measurements were induced for 16 h in YPD medium (1% yeast extract, 2% peptone, 2% glucose). Crude cell extracts were prepared by disrupting the cells with glass beads or French Press, depending on fermenter sizes. After centrifugation, the cell-free extracts were resuspended in cell breaking buffer (50 mM Tris, pH 7.4, 100 mM KCl, 1 mM EDTA) in the presence of a protease inhibitor cocktail, before aliquoting and freezing at −20° C.
CPT activity was measured using a spectrophotometric assay using 5,5′-dithio-bis-(2-nitrobenzoic acid) (DTNB) also called Ellman's reagent. The HS-CoA released on the formation of acylcarnitine from carnitine (500 μM) and palmitoyl-CoA (80 μM) reduced DTNB (300 μM) forming 5-mercapto-(2-nitrobenzoic acid) witch absorbed at 410 nm with a molar coefficient extinction of 13600 M^−1·cm^−1. The assay buffer contained 120 mM KCl, 25 mM Tris, pH 7.4, 1 mM EDTA. This assay was used for the identification of selective inhibitors of the liver CPT1 isoform versus the muscle CPT1 and CPT2 isoforms.
Background: Ellman's reagent forms a yellow product with free thiols.
Regarding `O=C(O)c1ccc(NC(=O)c2cccc(NS(=O)(=O)c3ccc(Cl)c(Cl)c3)c2)cc1` [Example 5, 4-[3-(3,4-Dichloro-benzenesulfonylamino)-benzoylamino]-benzoic acid], the half-inhibitory concentration (IC50) was found to be 192 nM. As to `O=C(O)c1ccc(NC(=O)c2ccc(Cl)c(NS(=O)(=O)c3cccc(Cl)c3)c2)cc1` [Example 21, 4-[4-Chloro-3-(3-chloro-benzenesulfonylamino)-benzoylamino]-benzoic acid], the IC50 came to 153 nM. As for `COc1cc(C(=O)Nc2ccc(C(=O)O)cc2)cc(NS(=O)(=O)c2cc(Cl)cc(Cl)c2)c1OC` [Example 32, 4-[3-(3,5-Dichloro-benzenesulfonylamino)-4,5-dimethoxy-benzoylamino]-benzoic acid], the figure is 881 nM.

Usually IC50 stands for the concentration that gives 50% inhibition.

The values are drawn from US7723538B2, “Sulfonamides as L-CPT1 inhibitors” (Hoffmann-La Roche Inc., priority 2005, dated 2010).
